In patent US9309242B2, “Substituted pyrido[2,3-b]pyrazines as FGFR kinase inhibitors” (priority 2011, dated 2016):
Where a name gives a salt, the structure may show the parent alone. Read-outs that look alike come from different tables or passages of the source.

Legend:
[1] = molecular target: FGFR1 (h) (Homo sapiens, UniProt P11362); assay: FGFR1 (enzymatic assay), TR-FRET; type: biochemical; settings: read-out: FGFR 1 pIC50 (converted)
[2] = molecular target: FGFR2 (h) (Homo sapiens, UniProt P21802); assay: FGFR2 (enzymatic assay), TR-FRET; type: biochemical; settings: enzymatic assay, read-out: FGFR 2 pIC50 (converted)
Description: In a final reaction volume of 30 μL, FGFR2 (h) (150 ng/ml) was incubated with 50 mM HEPES pH 7.5, 6 mM MnCl2, 1 mM DTT, 0.1 mM Na3VO4, 0.01% Triton-X-100, 500 nM Btn-Flt3 and 0.4 μM ATP in the presence of compound (1% DMSO final).

[3] = molecular target: FGFR3 (h) (Homo sapiens, UniProt P22607); assay: FGFR3 (enzymatic assay), TR-FRET; type: biochemical; settings: read-out: FGFR 3 pIC50 (converted)
Text: Time-Resolved Fluorescence Resonance Energy Transfer (TR-FRET) signal (ex340 nm.

[4] = molecular target: FGFR4 (h) (Homo sapiens, UniProt P22455); assay: FGFR4 (enzymatic assay), TR-FRET; type: biochemical; settings: FGFR 4 pIC50, enzymatic assay
[5] = molecular target: KDR (h) (Homo sapiens, UniProt P35968); assay: KDR (VEGFR2) (enzymatic assay), TR-FRET; type: biochemical; settings: read-out: VEGFR 2 (KDR) pIC50 (converted)
Description: KDR (VEGFR2) (Enzymatic Assay)
In a final reaction volume of 30 μL, KDR (h) (150 ng/ml) was incubated with 50 mM HEPES pH 7.5, 6 mM MnCl2, 1 mM DTT, 0.1 mM Na3VO4, 0.01% Triton-X-100, 500 nM Btn-Flt3 and 3 μM ATP in the presence of compound (1% DMSO final). After incubation for 120 minutes at room temperature the reaction was stopped with 2.27 nM EU-anti P-Tyr, 7 mM EDTA, 31.25 nM SA-XL-665 and 0.02% BSA which was present for 60 minutes at room temperature. Time-Resolved Fluorescence Resonance Energy Transfer (TR-FRET) signal (ex340 nm. Em 620 nm, em 655 nm) was measured afterwards and results are expressed in RFU (Relative Fluorescence Units).

[6] = molecular target: T1, Ba/F3-FGFR1-transfected cells (Homo sapiens, UniProt P11362); assay: Ba/F3-FGFR1 (minus IL3) cellular proliferation assay, Alamar Blue; type: cell-based
T1 construct: BAF3-FGFR1 (MIN IL3) pIC50; other: minus IL3
Description: (§1) Ba/F3-FGFR1 (Minus IL3 or Plus IL3) (Cellular Proliferation Assay)
(§2) In a 384 well plate, 100 nl of compound dilution in DMSO was sprayed before adding 50 μl cell culture medium (phenol red free RPMI-1640, 10% FBS, 2 mM L-Glutamine and 50 μg/ml Gentamycin) containing 20000 cells per well of Ba/F3-FGFR1-transfected cells. Cells were put in an incubator at 37° C. and 5% CO2. After 24 hours, 10 μl of Alamar Blue solution (0.5 mM K3Fe(CN)6, 0.5 mM K4Fe(CN)6, 0.15 mM Resazurin and 100 mM Phosphate Buffer) was added to the wells, incubated for 4 hours at 37° C. and 5% CO2 before RFU's (Relative Fluorescence Units) (ex. 540 nm., em. 590 nm.) were measured in a fluororescence plate reader.

[7] = tested on: Ba/F3-FGFR1-transfected cells; assay: Ba/F3-FGFR1 (plus IL3) cellular proliferation assay, counterscreen with 10 ng/ml murine IL3; type: cell-based; settings: for BAF3-FGFR1 (PLUS IL3) pIC50: plus IL3 (10 ng/ml murine IL3, counterscreen); for IC50: read-out: BAF3-FGFR1 (PLUS IL3) pIC50 (converted)
Description: as §1, §2
(§3) As a counterscreen the same experiment was performed in the presence of 10 ng/ml murine IL3.

[8] = molecular target: T2, Ba/F3-FGFR3-transfected cells (Homo sapiens, UniProt P22607); assay: Ba/F3-FGFR3 (minus IL3) cellular proliferation assay, Alamar Blue; type: cell-based
T2 construct: BAF3-FGFR3 (MIN IL3) pIC50; other: minus IL3
Description: (§4) Ba/F3-FGFR3 (Minus IL3 or Plus IL3) (Cellular Proliferation Assay)
as §2, with “Ba/F3-FGFR3-transfected” for “Ba/F3-FGFR1-transfected”, “reader. […]” for “reader.”

[9] = tested on: Ba/F3-FGFR3-transfected cells; assay: Ba/F3-FGFR3 (plus IL3) cellular proliferation assay, counterscreen with 10 ng/ml murine IL3; type: cell-based; settings: for BAF3-FGFR3 (PLUS IL3) pIC50: plus IL3 (10 ng/ml murine IL3, counterscreen); for IC50: read-out: BAF3-FGFR3 (PLUS IL3) pIC50 (converted)
Description: as §4
as §2, with “Ba/F3-FGFR3-transfected” for “Ba/F3-FGFR1-transfected”
as §3

[10] = molecular target: T3, Ba/F3-KDR-transfected cells (Homo sapiens, UniProt P35968); assay: Ba/F3-KDR (minus IL3) cellular proliferation assay, Alamar Blue; type: cell-based
T3 construct: BAF3-KDR (MIN IL3) pIC50; other: minus IL3
Description: (§5) Ba/F3-KDR (Minus IL3 or Plus IL3) (Cellular Proliferation Assay)
as §2, with “n1” for “nl”, “Ba/F3-KDR-transfected” for “Ba/F3-FGFR1-transfected”, “reader. […]” for “reader.”

[11] = tested on: Ba/F3-KDR-transfected cells; assay: Ba/F3-KDR (plus IL3) cellular proliferation assay, counterscreen with 10 ng/ml murine IL3; type: cell-based; settings: for BAF3-KDR (PLUS IL3) pIC50: plus IL3 (10 ng/ml murine IL3, counterscreen); for IC50: read-out: BAF3-KDR (PLUS IL3) pIC50 (converted)
Description: as §5
as §2, with “n1” for “nl”, “Ba/F3-KDR-transfected” for “Ba/F3-FGFR1-transfected”
as §3

[12] = molecular target: Ba/F3-FGFR4-transfected cells (Homo sapiens, UniProt P22455); assay: Ba/F3-FGFR4 cellular proliferation assay, Alamar Blue; type: cell-based
Description: Ba/F3-FGFR4 (Cellular Proliferation Assay)
as §2, with “n1” for “nl”, “Ba/F3-FGFR4-transfected” for “Ba/F3-FGFR1-transfected”

[13] = average values if tested multiple times

Chain of FGFR1 (h) (P11362 22-822): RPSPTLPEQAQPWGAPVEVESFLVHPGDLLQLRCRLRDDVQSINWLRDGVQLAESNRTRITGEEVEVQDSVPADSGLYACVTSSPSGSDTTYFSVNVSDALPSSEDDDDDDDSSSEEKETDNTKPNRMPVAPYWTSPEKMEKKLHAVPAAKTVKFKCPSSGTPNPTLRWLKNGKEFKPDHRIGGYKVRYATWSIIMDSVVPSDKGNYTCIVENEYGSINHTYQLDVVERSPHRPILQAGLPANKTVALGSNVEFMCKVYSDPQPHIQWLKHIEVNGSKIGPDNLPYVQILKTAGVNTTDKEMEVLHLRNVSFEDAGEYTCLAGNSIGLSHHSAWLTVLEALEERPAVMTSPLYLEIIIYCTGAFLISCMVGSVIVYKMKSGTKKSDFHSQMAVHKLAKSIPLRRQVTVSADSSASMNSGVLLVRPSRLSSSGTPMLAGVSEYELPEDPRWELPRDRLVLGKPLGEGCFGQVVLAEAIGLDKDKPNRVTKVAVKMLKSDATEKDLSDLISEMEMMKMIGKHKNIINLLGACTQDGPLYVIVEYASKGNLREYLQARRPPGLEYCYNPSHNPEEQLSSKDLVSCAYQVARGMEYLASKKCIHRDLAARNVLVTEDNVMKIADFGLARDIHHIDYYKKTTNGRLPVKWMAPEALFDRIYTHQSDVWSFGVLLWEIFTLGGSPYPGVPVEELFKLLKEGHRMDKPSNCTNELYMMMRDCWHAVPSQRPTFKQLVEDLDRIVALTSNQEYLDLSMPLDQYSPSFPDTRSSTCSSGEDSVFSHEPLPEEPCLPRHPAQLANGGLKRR
T3 sequence (P35968 whole entry, change not shown): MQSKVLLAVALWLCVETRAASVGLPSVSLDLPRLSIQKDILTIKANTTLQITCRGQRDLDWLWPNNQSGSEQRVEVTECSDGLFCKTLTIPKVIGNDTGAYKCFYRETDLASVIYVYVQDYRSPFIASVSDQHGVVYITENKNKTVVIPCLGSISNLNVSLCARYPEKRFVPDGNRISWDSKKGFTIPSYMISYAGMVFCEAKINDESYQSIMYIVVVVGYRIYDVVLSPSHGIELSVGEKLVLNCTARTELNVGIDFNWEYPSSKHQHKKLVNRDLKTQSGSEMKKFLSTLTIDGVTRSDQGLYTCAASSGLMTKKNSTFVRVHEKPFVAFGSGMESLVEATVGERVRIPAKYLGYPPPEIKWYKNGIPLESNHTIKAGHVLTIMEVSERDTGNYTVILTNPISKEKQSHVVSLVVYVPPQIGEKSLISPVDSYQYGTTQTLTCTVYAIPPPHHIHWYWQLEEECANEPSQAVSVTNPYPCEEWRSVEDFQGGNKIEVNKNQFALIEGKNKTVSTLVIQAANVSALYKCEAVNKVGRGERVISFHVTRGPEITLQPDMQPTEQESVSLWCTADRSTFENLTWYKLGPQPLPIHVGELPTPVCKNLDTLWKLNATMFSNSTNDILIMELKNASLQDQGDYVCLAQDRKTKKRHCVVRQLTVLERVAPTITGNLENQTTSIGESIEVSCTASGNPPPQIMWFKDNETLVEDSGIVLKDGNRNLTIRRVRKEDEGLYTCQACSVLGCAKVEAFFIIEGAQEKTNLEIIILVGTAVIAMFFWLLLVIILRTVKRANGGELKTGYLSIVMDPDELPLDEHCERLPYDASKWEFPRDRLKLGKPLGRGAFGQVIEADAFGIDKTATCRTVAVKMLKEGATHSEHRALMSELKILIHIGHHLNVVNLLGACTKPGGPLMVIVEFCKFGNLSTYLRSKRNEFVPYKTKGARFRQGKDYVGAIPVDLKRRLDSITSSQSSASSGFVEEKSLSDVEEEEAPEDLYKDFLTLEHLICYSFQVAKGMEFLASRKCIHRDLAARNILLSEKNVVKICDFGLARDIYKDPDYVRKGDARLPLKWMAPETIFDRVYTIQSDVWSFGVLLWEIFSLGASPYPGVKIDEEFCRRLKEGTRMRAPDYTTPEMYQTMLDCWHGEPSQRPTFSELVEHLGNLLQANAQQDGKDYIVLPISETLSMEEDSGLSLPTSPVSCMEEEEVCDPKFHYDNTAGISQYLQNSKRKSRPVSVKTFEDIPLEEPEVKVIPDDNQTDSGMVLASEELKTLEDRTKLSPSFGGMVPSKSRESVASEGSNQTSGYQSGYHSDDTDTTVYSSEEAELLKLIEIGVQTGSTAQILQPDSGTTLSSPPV
T2 sequence (P22607 whole entry, change not shown): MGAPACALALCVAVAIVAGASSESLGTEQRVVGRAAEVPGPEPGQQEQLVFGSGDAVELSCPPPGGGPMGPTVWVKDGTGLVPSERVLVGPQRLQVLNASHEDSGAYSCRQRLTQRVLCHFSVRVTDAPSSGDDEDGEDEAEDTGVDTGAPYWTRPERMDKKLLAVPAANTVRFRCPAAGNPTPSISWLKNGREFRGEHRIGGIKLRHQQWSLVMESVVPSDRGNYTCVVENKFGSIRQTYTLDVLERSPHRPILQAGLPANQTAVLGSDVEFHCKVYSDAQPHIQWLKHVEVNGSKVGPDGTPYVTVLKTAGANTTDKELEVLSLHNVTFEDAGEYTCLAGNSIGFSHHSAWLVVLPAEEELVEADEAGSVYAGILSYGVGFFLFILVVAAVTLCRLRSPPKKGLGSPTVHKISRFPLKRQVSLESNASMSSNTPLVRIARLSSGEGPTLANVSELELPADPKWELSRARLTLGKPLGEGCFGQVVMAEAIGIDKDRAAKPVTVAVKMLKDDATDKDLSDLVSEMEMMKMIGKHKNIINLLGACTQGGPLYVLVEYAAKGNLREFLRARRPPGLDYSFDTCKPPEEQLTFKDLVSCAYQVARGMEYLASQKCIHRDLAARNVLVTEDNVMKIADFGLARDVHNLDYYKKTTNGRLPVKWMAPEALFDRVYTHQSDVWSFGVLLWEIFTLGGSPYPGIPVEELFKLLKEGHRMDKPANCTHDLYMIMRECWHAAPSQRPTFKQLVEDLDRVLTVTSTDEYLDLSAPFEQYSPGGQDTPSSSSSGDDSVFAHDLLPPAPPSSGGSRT
Chain of Ba/F3-FGFR4-transfected cells (P22455 whole entry, change not shown): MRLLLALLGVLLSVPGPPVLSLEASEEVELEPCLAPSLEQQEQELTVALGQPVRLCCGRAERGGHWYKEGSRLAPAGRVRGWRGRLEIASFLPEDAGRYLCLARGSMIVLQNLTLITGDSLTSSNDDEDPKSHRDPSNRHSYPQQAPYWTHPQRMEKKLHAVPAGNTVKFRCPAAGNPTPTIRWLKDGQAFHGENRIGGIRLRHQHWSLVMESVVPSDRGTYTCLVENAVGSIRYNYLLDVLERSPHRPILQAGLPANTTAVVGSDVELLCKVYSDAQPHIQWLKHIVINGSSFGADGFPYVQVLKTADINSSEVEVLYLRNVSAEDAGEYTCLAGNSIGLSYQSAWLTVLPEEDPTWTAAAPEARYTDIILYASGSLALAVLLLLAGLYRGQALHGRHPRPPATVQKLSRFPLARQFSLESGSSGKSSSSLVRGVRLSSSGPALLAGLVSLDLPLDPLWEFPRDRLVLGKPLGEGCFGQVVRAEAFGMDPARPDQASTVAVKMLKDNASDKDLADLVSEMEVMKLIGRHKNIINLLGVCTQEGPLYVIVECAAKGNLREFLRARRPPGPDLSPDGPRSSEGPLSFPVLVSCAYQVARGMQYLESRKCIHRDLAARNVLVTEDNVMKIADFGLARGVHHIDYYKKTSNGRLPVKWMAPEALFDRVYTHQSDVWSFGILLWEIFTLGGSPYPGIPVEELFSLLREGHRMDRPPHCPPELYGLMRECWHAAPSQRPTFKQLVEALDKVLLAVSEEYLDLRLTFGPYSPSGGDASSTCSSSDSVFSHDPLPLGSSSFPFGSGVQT
Chain of FGFR4 (h) (P22455 22-802): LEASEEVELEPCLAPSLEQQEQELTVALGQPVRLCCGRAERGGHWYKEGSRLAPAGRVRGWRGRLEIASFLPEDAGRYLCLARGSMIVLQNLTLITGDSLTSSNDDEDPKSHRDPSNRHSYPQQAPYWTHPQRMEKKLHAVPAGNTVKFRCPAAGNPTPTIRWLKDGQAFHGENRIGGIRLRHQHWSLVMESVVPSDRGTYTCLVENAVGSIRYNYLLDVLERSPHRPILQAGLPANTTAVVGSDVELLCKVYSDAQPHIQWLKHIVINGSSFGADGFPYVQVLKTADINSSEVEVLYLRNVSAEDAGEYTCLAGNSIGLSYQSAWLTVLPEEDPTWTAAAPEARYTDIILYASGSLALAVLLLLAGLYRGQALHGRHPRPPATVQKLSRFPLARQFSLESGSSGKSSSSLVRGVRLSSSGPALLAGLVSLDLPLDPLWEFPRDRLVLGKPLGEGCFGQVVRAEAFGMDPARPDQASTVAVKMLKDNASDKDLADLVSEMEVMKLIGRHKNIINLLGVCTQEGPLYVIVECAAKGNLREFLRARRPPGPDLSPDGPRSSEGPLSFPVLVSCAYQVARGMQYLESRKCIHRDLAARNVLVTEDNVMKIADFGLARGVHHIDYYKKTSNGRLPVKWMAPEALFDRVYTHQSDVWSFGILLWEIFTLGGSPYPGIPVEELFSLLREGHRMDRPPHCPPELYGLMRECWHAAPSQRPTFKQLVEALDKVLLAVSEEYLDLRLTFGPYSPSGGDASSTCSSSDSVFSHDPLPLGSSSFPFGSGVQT

Compound	IC50 [1, 13]	IC50 [2, 13]	IC50 [3, 13]	IC50 [4, 13]	IC50 [5, 13]	BAF3-FGFR1 (MIN IL3) pIC50 [6]	BAF3-FGFR1 (PLUS IL3) pIC50 [7]	BAF3-FGFR3 (MIN IL3) pIC50 [8]	BAF3-FGFR3 (PLUS IL3) pIC50 [9]	BAF3-KDR (MIN IL3) pIC50 [10]	BAF3-KDR (PLUS IL3) pIC50 [11]	BAF3-FGFR4 pIC50 [12]	IC50 [7]	IC50 [9]	IC50 [11]	IC50 [1]	IC50 [2]	IC50 [3]	IC50 [4]	IC50 [5]
COc1cc(OC)c(F)c(N(CC(O)COC(C)C)c2ccc3ncc(-c4cnn(C)c4)nc3n2)c1 (single isomer, unassigned) [Compound 78]	2.4 nM	2.75 nM	2.34 nM	2.51 nM	15.1 nM	7.59	<5	7.70	<5	6.13	<5	7.03	–	–	–	–	–	–	–	–
CNCCn1/c(=N/c2c(Cl)c(OC)cc(OC)c2Cl)ccc2ncc(-c3cnn(C)c3)nc21 [Compound 82]	11.7 nM	10.7 nM	14.1 nM	182 nM	490 nM	6.67	–	~6.61	–	<5	–	5.43	> 10000 nM	> 10000 nM	> 10000 nM	–	–	–	–	–
COc1cc(OC)c(F)c(N(CC(O)COC(C)C)c2ccc3ncc(-c4cnn(C)c4)nc3n2)c1F (stereo not drawn) [Compound 62]	4.07 nM	7.76 nM	5.5 nM	3.31 nM	32.4 nM	8.06	<5	8.10	<5	6.21	<5	7.92	–	–	–	–	–	–	–	–
COc1cc(OC)c(F)c(N(Cc2ncc[nH]2)c2ccc3ncc(-c4cnn(C)c4)nc3n2)c1 [23-Sulfate salt]	0.589 nM	2.09 nM	1.12 nM	1.26 nM	7.94 nM	8.94	<5	~8.64	<5	6.51	<5	7.88	–	–	–	–	–	–	–	–
COc1cc(OC)cc(N(CC(O)C(F)(F)F)c2ccc3ncc(-c4cnn(C)c4)nc3n2)c1 (single isomer, unassigned) [Compound 34]	3.55 nM	4.57 nM	1.35 nM	7.08 nM	331 nM	7.18	<5	6.97	<5	<5	<5	6.64	–	–	–	–	–	–	–	–
COc1cc(/N=c2\ccc3ncc(-c4cnn(C)c4)nc3n2CCNC(C)=O)c(F)c(OC)c1 [Compound 243]	–	–	–	–	–	7.85	–	~8.13	–	6.00	–	7.14	> 10000 nM	> 10000 nM	> 10000 nM	0.977 nM	1.62 nM	1.32 nM	1.95 nM	15.1 nM
COc1cc(OC)c(F)c(N(Cc2ncc[nH]2)c2ccc3ncc(-c4cnn(C)c4)nc3n2)c1 [23-hydrochloric acid salt]	0.437 nM	1.41 nM	0.776 nM	0.851 nM	6.76 nM	8.81	<5	~8.58	<5	6.68	<5	7.98	–	–	–	–	–	–	–	–
CCN(c1ccc2ncc(-c3cnn(C)c3)nc2n1)c1c(F)c(OC)cc(OC)c1F [Compound 256]	–	–	–	–	–	8.05	–	8.16	–	6.16	–	7.36	> 10000 nM	> 10000 nM	> 10000 nM	0.49 nM	1.66 nM	0.708 nM	1.02 nM	8.71 nM
